The text below walks through data of patent US10195189B2, “2-phenethenyltetrahydro isoquinolines useful as anti-HIV compounds” (priority 2014, dated 2019).

This test concerns HIV-1 NL4-3 viral clone expressing Renilla luciferase. The test is described as follows: microbe, parasite or virus in culture. As to conditions: Human immunodeficiency virus 1, NL43, MT2, 96 h. The class given is cell-based. In a few lines: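 MT-2 cells (2×10^4/well) were infected at MOI 0.027 with Renilla-luciferase HIV-1 NL4-3 alongside 3-fold compound dilutions for 96 h. Spread was read by EnduRen luminescence and supernatant infectivity on TZM-bl (48 h, MUG fluorescence). Mock-infected cytotoxicity used AlamarBlue. % inhibition versus solvent was fitted by 4-parameter logistic (0–100% constrained) for EC50/CC50.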

Regarding `COc1ccc(OC)c(/C=C/C2NCCc3cc(OCc4ccccc4)c(OC)cc32)c1` (stereo not shown) [EK, 6-Benzyloxy-1-[(E)-2-(2,5-dimethoxyphenyl)vinyl]-7-methoxy-1,2,3,4-tetrahydroisoquinoline], the response was half-maximal at 380 nM (EC50).

Turning to `COc1cc2c(cc1OCc1ccccc1)CCNC2/C=C/c1ccc(OC)c(C)c1C` (stereo not shown) [EL, 6-Benzyloxy-7-methoxy-1-[(E)-2-(4-methoxy-2,3-dimethyl-phenyl)vinyl]-1,2,3,4-tetrahydroisoquinoline], the midpoint of the response, the EC50, lay at 150 nM.

For `COc1ccc(/C=C/C2NCCc3cc(OCc4ccccc4)c(OC)cc32)cc1CN1CCCCC1` (stereo not shown) [EM, 6-Benzyloxy-7-methoxy-1-[(E)-2-[4-methoxy-3-(1-piperidylmethyl)phenyl]vinyl]-1,2,3,4-tetrahydroisoquinoline], the midpoint of the response, the EC50, lay at 320 nM. This EC50 is about 2.1-fold higher than that of the compound before.

For the compound `COc1ccc(/C=C/C2NCCc3cc(OCc4ccccc4)c(OC)cc32)cc1Cn1ccnc1C` (stereo not shown) [EN, 6-Benzyloxy-7-methoxy-1-[(E)-2-[4-methoxy-3-[(2-methylimidazol-1-yl)methyl]phenyl]vinyl]-1,2,3,4-tetrahydroisoquinolin], a half-maximal effect (EC50) was put at 189 nM.

Consider `COc1ccc(/C=C/C2NCCc3cc(OCc4ccccc4)c(OC)cc32)cc1COCC(F)(F)F` (stereo not shown) [EO, 6-Benzyloxy-7-methoxy-1-[(E)-2-[4-methoxy-3-(2,2,2-trifluoroethoxymethyl)phenyl]vinyl]-1,2,3,4-tetrahydroisoquinoline], for which the concentration giving a half-maximal response (EC50) (commonly the concentration giving half of the maximal effect) was 504 nM.

On to `COc1cc2c(cc1OCc1ccccc1)CCNC2/C=C/c1ccc(C(=O)O)cc1` (stereo not shown) [EQ, 4-[(E)-2-(6-benzyloxy-7-methoxy-1,2,3,4-tetrahydroisoquinolin-1-yl)vinyl]benzoic acid], for which the concentration giving a half-maximal response (EC50) amounted to 7040 nM. This EC50 is about 14-fold higher than that of the compound before.

With `COc1cc2c(cc1OCc1ccccc1)CCNC2/C=C/c1cccc(C(=O)O)c1` (stereo not shown) [ER, 3-[(E)-2-(6-benzyloxy-7-methoxy-1,2,3,4-tetrahydroisoquinolin-1-yl)vinyl]benzoic acid], the midpoint of the response, the EC50, lay at 10000 nM.

`COc1cc2c(cc1OCc1ccccc1)CCNC2/C=C/c1ccccc1C(=O)O` (stereo not shown) [ES, 2-[(E)-2-(6-benzyloxy-7-methoxy-1,2,3,4-tetrahydroisoquinolin-1-yl)vinyl]benzoic acid] registered an EC50 of 8620 nM.

`CCOC(=O)c1ccccc1/C=C/C1NCCc2cc(OCc3ccccc3)c(OC)cc21` (stereo not shown) [ET, Ethyl 2-[(E)-2-(6-benzyloxy-7-methoxy-1,2,3,4-tetrahydroisoquinolin-1-yl)vinyl]benzoate] returned an EC50 of 2480 nM.

`COc1ccc(CCC2NCCc3cc(OC)c(OC)cc32)cc1OC` (stereo not shown) [Example A, 1-[2-(3,4-Dimethoxyphenyl)ethyl]-6,7-dimethoxy-1,2,3,4-tetrahydroisoquinoline]: it took 10000 nM to reach a half-maximal effect (EC50).

`CCc1cc(OC)c(OCc2ccccc2)cc1/C=C/C1NCCc2cc(OCc3ccccc3)c(OC)cc21` (stereo not shown) [Example AA, 6-benzyloxy-1-[(E)-2-(5-benzyloxy-2-ethyl-4-methoxy-phenyl)vinyl]-7-methoxy-1,2,3,4-tetrahydroisoquinoline] displayed an EC50 of 148 nM.

In turn, `COc1ccc(/C=C/C2NCCc3cc(OCc4ccccc4)c(OC)cc32)cc1OCc1ccccc1` (stereo not shown) [Example AB, 6-benzyloxy-1-[(E)-2-(3-benzyloxy-4-methoxy-phenyl)vinyl]-7-methoxy-1,2,3,4-tetrahydroisoquinoline] had an EC50 of 146 nM.

`COc1cc(Cl)c(/C=C/C2NCCc3cc(OCc4ccccc4)c(OC)cc32)cc1OCc1ccccc1` (stereo not shown) [Example AC, 6-benzyloxy-1-[(E)-2-(5-benzyloxy-2-chloro-4-methoxy-phenyl)vinyl]-7-methoxy-1,2,3,4-tetrahydroisoquinoline]: the response was half-maximal at 87.2 nM (EC50). This EC50 is about 1.7-fold lower than that of the compound before.

In turn, `COc1cc2c(cc1OCc1ccccc1)CCNC2/C=C/c1cc(OCc2ccccc2)ccc1C` (stereo not shown) [Example AD, 6-benzyloxy-1-[(E)-2-(5-benzyloxy-2-methyl-phenyl)vinyl]-7-methoxy-1,2,3,4-tetrahydroisoquinoline] displayed a 50% effective concentration (EC50) of 84 nM.

In the case of `COc1cc(C)c(/C=C/C2=NCCc3cc(OCc4ccccc4)c(OC)cc32)cc1OCc1ccccc1` [Example AE, 6-benzyloxy-1-[(E)-2-(5-benzyloxy-4-methoxy-2-methyl-phenyl)vinyl]-7-methoxy-3,4-dihydroisoquinoline], the EC50 was determined as 440 nM. This EC50 lies about 5.2-fold higher than the previous one.

In turn, `COc1ccc(/C=C/C2NCCc3cc(OCc4ccccc4)c(OC)cc32)c(C)c1` (stereo not shown) [Example AG, 6-benzyloxy-7-methoxy-1-[(E)-2-(4-methoxy-2-methyl-phenyl)vinyl]-1,2,3,4-tetrahydroisoquinoline] registered a half-maximal effective concentration (EC50) of 77.1 nM.

For the compound `COc1cc(C)c(/C=C/C2NCCc3cc(OCc4ccccc4)c(OC)cc32)cc1OC` (stereo not shown) [Example AH, 6-benzyloxy-1-[(E)-2-(4,5-dimethoxy-2-methyl-phenyl)vinyl]-7-methoxy-1,2,3,4-tetrahydroisoquinoline], it took 13.3 nM to reach a half-maximal effect (EC50).

In turn, `COCCCCOc1cc(OC)ccc1/C=C/C1NCCc2cc(OCc3ccccc3)c(OC)cc21` (stereo not shown) [Example AI, (E)-6-(benzyloxy)-7-methoxy-1-(4-methoxy-2-(4-methoxybutoxy)styryl)-1,2,3,4-tetrahydroisoquinoline] gave an EC50 of 1500 nM. Against the preceding compound, the EC50 is about 110-fold higher.

Compound `COc1cc2c(cc1OCc1ccccc1)CCNC2/C=C/c1ccc(OC(F)(F)F)cc1C` (stereo not shown) [Example AJ, (E)-6-(benzyloxy)-7-methoxy-1-(2-methyl-4-(trifluoromethoxy)styryl)-1,2,3,4-tetrahydroisoquinoline] had an EC50 of 2740 nM.

`COc1cc2c(cc1OCc1ccccc1)CCNC2/C=C/c1ccnn1C` (stereo not shown) [Example AK, 6-benzyloxy-7-methoxy-1-[(E)-2-(2-methylpyrazol-3-yl)vinyl]-1,2,3,4-tetrahydroisoquinoline]: the 50% effective concentration (EC50) amounted to 8870 nM. This EC50 is about 3.2-fold higher than that of the compound before.

As to `CCn1cc(/C=C/C2NCCc3cc(OCc4ccccc4)c(OC)cc32)cn1` (stereo not shown) [Example AL, 6-Benzyloxy-1-[(E)-2-(1-ethylpyrazol-4-yl)vinyl]-7-methoxy-1,2,3,4-tetrahydroisoquinoline], the response was half-maximal at 2950 nM (EC50).

`COc1cc2c(cc1OCc1ccccc1)CCNC2/C=C/c1cc(OC)c(OC)c(OC)c1` (stereo not shown) [Example AM, 6-Benzyloxy-7-methoxy-1-[(E)-2-(3,4,5-trimethoxyphenyl)vinyl]-1,2,3,4-tetrahydroisoquinoline] showed a 50% effective concentration (EC50) of 220 nM.

With `COc1cc2c(cc1OCc1ccccc1)CCNC2/C=C/c1ccc(OC)c2occc12` (stereo not shown) [Example AN, 6-Benzyloxy-7-methoxy-1-[(E)-2-(7-methoxybenzofuran-4-yl)vinyl]-1,2,3,4-tetrahydroisoquinoline], a half-maximal response (EC50) required 140 nM.

As to `COc1cc2c(cc1OCc1ccccc1)CCNC2/C=C/c1ccc(OC)c2ccoc12` (stereo not shown) [Example AO, 6-Benzyloxy-7-methoxy-1-[(E)-2-(4-methoxybenzofuran-7-yl)vinyl]-1,2,3,4-tetrahydroisoquinoline], the EC50 stood at 1130 nM.

`COc1ccc(/C=C/C2c3cc(OC)c(OCc4ccccc4)cc3CCN2C(=O)c2cnccn2)cc1OCc1ccccc1` (stereo not shown) [Example B, [6-Benzyloxy-1-[(E)-2-(3-benzyloxy-4-methoxy-phenyl)vinyl]-7-methoxy-3,4-dihydro-1H-isoquinolin-2-yl]-pyrazin-2-yl-methanone] showed an EC50 of 10000 nM. This EC50 is about 8.8-fold higher than that of the compound before.

As for `COc1cc2c(cc1OC)C(/C=C/c1cc(OCc3ccccc3)c(OC)cc1C)NCC2` (stereo not shown) [Example C, 1-[(E)-2-(5-Benzyloxy-4-methoxy-2-methyl-phenyl)vinyl]-6,7-dimethoxy-1,2,3,4-tetrahydroisoquinoline], the EC50 was found to be 9760 nM.

`CCCCN1CCc2cc(OC)c(OCc3ccccc3)cc2C1/C=C/c1ccc(OCc2ccccc2)c(OC)c1` (stereo not shown) [Example D, 7-Benzyloxy-1-[(E)-2-(4-benzyloxy-3-methoxy-phenyl)vinyl]-2-butyl-6-methoxy-3,4-dihydro-1H-isoquinoline] returned an EC50 of 8920 nM.

`COc1cc(C)c(/C=C/C2c3cc(OC)c(OCc4ccccc4)cc3CCN2C)cc1OCc1ccccc1` (stereo not shown) [Example E, 6-Benzyloxy-1-[(E)-2-(5-benzyloxy-4-methoxy-2-methyl-phenyl)vinyl]-7-methoxy-2-methyl-3,4-dihydro-1H-isoquinoline] had a half-maximal effective concentration (EC50) of 8470 nM.

The compound `CCCCN1CCc2cc(OCc3ccccc3)c(OC)cc2C1/C=C/c1ccc(OC)c(OCc2ccccc2)c1` (stereo not shown) [Example G, 6-Benzyloxy-1-[(E)-2-(3-benzyloxy-4-methoxy-phenyl)vinyl]-2-butyl-7-methoxy-3,4-dihydro-1H-isoquinoline] returned a 50% effective concentration (EC50) of 5000 nM.

On to `COC(=O)N1CCc2cc(OCc3ccccc3)c(OC)cc2C1/C=C/c1ccc(OC)c(OCc2ccccc2)c1` (stereo not shown) [Example L, Methyl 6-benzyloxy-1-[(E)-2-(3-benzyloxy-4-methoxy-phenyl)vinyl]-7-methoxy-3,4-dihydro-1H-isoquinoline-2-carboxylate], for which a half-maximal effect (EC50) was put at 2810 nM.

`COc1cc(C)c(/C=C/C2c3cc(OC)c(OCc4ccccc4)cc3CCN2C(=O)NC(C)(C)C)cc1OCc1ccccc1` (stereo not shown) [Example O, 6-benzyloxy-1-[(E)-2-(5-benzyloxy-4-methoxy-2-methyl-phenyl)vinyl]-N-tert-butyl-7-methoxy-3,4-dihydro-1H-isoquinoline-2-carboxamide] came in with a concentration for a half-maximal effect (EC50) of 2010 nM.

In turn, `COc1cc(C)c(CCC2NCCc3cc(OCc4ccccc4)c(OC)cc32)cc1OCc1ccccc1` (stereo not shown) [Example Q, 6-benzyloxy-1-[2-(5-benzyloxy-4-methoxy-2-methyl-phenyl)ethyl]-7-methoxy-1,2,3,4-tetrahydroisoquinoline] registered an EC50 of 1360 nM. The EC50 values of the last two compounds are within 1.5-fold of each other.

`COc1cc(/C=C/C2NCCc3cc(OC)c(OCc4ccccc4)cc32)ccc1OCc1ccccc1` (stereo not shown) [Example S, 7-benzyloxy-1-[(E)-2-(4-benzyloxy-3-methoxy-phenyl)vinyl]-6-methoxy-1,2,3,4-tetrahydroisoquinoline] showed an EC50 of 992 nM.

In turn, `COc1cc(C)c(/C=C/C2c3cc(OC)c(OCc4ccccc4)cc3CCN2C(=O)c2ccncc2)cc1OCc1ccccc1` (stereo not shown) [Example U, [6-benzyloxy-1-[(E)-2-(5-benzyloxy-4-methoxy-2-methyl-phenyl)vinyl]-7-methoxy-3,4-dihydro-1H-isoquinolin-2-yl]-(4-pyridyl)methanone] had an EC50 of 870 nM.
